Measurements reported in paper PMC5466822 (Organic & biomolecular chemistry, 2016).

What was measured:
p97 [1] = molecular target: T1, p97 (Homo sapiens, UniProt P55072); assay: malachite green ATPase assay, 9-point dose-response; type: biochemical
p97 [2] = molecular target: T1, p97; assay: malachite green ATPase assay, dose-response; type: biochemical

T1 sequence (P55072 2-806): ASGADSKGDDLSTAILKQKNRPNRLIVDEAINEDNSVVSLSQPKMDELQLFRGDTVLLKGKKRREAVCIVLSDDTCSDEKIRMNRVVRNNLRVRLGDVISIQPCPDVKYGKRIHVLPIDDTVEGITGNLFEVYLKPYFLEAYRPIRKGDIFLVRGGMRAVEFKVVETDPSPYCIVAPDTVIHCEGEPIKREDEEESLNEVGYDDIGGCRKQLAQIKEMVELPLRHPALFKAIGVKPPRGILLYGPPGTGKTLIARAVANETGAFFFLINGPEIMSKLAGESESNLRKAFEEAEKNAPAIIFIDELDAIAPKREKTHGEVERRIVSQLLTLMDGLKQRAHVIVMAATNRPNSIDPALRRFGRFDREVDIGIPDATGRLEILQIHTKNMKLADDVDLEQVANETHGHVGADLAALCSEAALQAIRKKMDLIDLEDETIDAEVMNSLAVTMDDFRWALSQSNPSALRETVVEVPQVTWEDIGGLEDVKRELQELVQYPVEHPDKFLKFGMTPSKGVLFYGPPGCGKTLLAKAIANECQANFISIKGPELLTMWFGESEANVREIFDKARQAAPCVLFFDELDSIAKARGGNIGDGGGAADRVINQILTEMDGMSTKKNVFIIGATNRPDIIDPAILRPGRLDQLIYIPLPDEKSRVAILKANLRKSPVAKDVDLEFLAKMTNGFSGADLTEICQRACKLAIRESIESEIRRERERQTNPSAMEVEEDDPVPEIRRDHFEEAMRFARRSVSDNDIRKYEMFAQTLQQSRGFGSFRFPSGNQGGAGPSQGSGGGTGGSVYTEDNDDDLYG

SMILES: C[C@H]1CCC/C=C/C(=O)c2c(O)cc(O)cc2CC(=O)O1 [compound 2, 10(11)-dehydrocurvularin]
- IC50 (p97 [1]): 15.3 ± 9.9 µM

SMILES: C[C@H]1CCC/C=C/C(=O)c2c(cc(O)c(Cl)c2O)CC(=O)O1 [compound 3, 6-chloro-10(11)-dehydrocurvularin]
- IC50 (p97 [2]): 24.3 µM

SMILES: C[C@H]1CCC/C=C/C(=O)c2c(O)c(Cl)c(O)c(Cl)c2CC(=O)O1 [compound 4, 4,6-dichloro-10(11)-dehydrocurvularin]
- IC50 (p97 [2]): 13.9 µM
